In patent US20060129225A1, “Device for the delivery of a cardioprotective agent to ischemic reperfused myocardium” (priority 2004, published 2006):

What was measured:
[1] = Liquid formulations with Vitamin E TPGS, ethanol and water (HPLC assay, visual observation); format: physicochemical; settings: ethanol less than two percent, water
[2] = system: human coronary artery smooth muscle cells; test: Anti-proliferative activity in synchronized cultured human coronary artery smooth muscle cells stimulated with two percent fetal bovine serum; format: cell-based
From the text: (§1) The multiple curves represent various concentrations of topotecan ranging from zero to three hundred nanomolar concentrations.
(§2) The multiple curves represent various concentrations of etoposide ranging from zero to eight hundred nanomolar concentrations.
The multiple curves represent various concentrations of Panzem® ranging from zero to 100 micromolar concentrations.

[3] = system: human coronary artery smooth muscle cell survival; test: MTS cytotoxicity assay; format: cell-based; settings: concentrations up to 30,000.00 nanomolar (tested from 6.6 nanomolar)
From the text: Typically, a control is utilized to determine baseline toxicity.

[4] = In vivo release kinetics from polymeric stent coatings in porcine pharmacokinetics studies
[5] = system: human coronary artery smooth muscle cells; test: Anti-proliferative activity in non-synchronized cultured human coronary artery smooth muscle cells stimulated with two percent fetal bovine serum; format: cell-based
From the text: The multiple curves represent various concentrations of mycophenolic acid ranging from zero to one thousand nanomolar concentrations.
FIG. 58 illustrates, in graphical format, the anti-proliferative activity of cladribine in non-synchronized cultured human coronary artery smooth muscle cells stimulated with two percent fetal bovine serum.
The multiple curves represent various concentrations of cladribine ranging from zero to nine hundred nanomolar concentrations.

[6] = system: human smooth muscle cells; test: PDGF AB-stimulated proliferation of human smooth muscle cells (cell count, day six); format: cell-based; settings: from the IC50 values
Experimental: To assess the ability of cladribine to prevent cell proliferation, human smooth muscle or endothelial cells (Clonetics, Walkersville, Md.) were seeded at a density of 2000 cells/cm^2 (approximately 3600 cells/well) into each well of 12-well plates and cultured with 1.5 ml of growth medium containing five percent fetal calf serum (FCS). After twenty-four hours, the growth medium was changed and fresh medium containing 10 ng/ml platelet-derived growth factor AB (PDGF AB; LIFE Technologies), as well as various concentrations of cladribine (0.001-10,000 nM) were added with triplicate wells. Medium was replaced with fresh cladribine-containing medium after three days. On day six, cells were detached by trypsinization to yield a cell suspension, lightly centrifuged to pellet and then counted manually using a Neubauer hemocytometer system. Cell viability was assessed by trypan blue exclusion.

[7] = system: cell viability; test: Cell viability assay; format: cell-based
From the text: as §1, §2

[8] = system: human coronary artery smooth muscle cell proliferation; test: In vitro cell culture study of coronary artery smooth muscle cell proliferation; format: cell-based
From the text: FIG. 51 is a graph of the inhibition of coronary artery smooth muscle cells by trichostatin A in a cell culture study.

[9] = system: tumor cell lines; settings: cited from earlier work

**Q.** Which “concentration of CCI-779 in the final solution (HPLC assay)” value [1] does the source give for CO[C@H]1C[C@@H]2CC[C@@H](C)[C@@](O)(O2)C(=O)C(=O)N2CCCC[C@H]2C(=O)O[C@H]([C@H](C)C[C@@H]2CC[C@@H](OC(=O)C(C)(CO)CO)[C@H](OC)C2)CC(=O)[C@H](C)/C=C(\C)[C@@H](O)[C@@H](OC)C(=O)[C@H](C)C[C@H](C)/C=C/C=C/C=C/1C [CCI-779] here?
**A.** Its value is 15 mg/mi.

**Q.** Which “effect of addition to cells treated with rapamycin on percent of inhibition” value ([2]; Panzem 0.813 to 100 micromolar) does the source give for COc1cc2c(cc1O)CC[C@@H]1[C@@H]2CC[C@]2(C)[C@@H](O)CC[C@@H]12 [Panzem®, 2-methoxyestradiol] here?
**A.** The value was “increases the percent of inhibition of rapamycin alone”.

**Q.** What about the “inhibition of human coronary artery smooth muscle cell proliferation in vitro” value ([2]; Panzem alone, synchronized cells) of the same molecule?
**A.** The value was “extremely effective inhibitor”.

**Q.** What about the “human coronary artery smooth muscle cell survival (MTS assay)” value [3] of the same molecule?
**A.** Its value is “do not reduce”.

**Q.** Which results are given for Nc1nc(Cl)nc2c1ncn2[C@H]1C[C@H](O)[C@@H](CO)O1 [cladribine, 2-chlorodeoxyadenosine]?
**A.** in vivo elution compared with rapamycin ([4]; EVA/BMA basecoat with rapamycin and cladribine, 200 μg BMA topcoat, Bx Velocity stents, Yorkshire pigs): elutes more rapidly than rapamycin; in vivo elution from coating over time ([4]; PVDF/HFP (85/15) basecoat 1800 μg with thirty percent cladribine, 300 μg topcoat, Bx Velocity stents, Yorkshire pig, after the first day): levels off significantly; effect of addition to cells treated with rapamycin on percent inhibition ([5]; cladribine 56.25 to 900 nanomolar): increases the percent inhibition of rapamycin alone; inhibition of human coronary artery smooth muscle cell proliferation ([5]; non-synchronized cells, two percent fetal bovine serum): completely inhibits; potency as inhibitor of smooth muscle cells relative to endothelial cells [6]: approximately twice

**Q.** Which results are given for COc1cc([C@@H]2c3cc4c(cc3[C@@H](O[C@@H]3O[C@@H]5CO[C@@H](C)O[C@H]5[C@H](O)[C@H]3O)[C@H]3COC(=O)[C@H]23)OCO4)cc(OC)c1O [etoposide]?
**A.** effect of addition to cells treated with rapamycin on percent inhibition ([2]; etoposide 255.7 to eight hundred nanomolar): increases the percent inhibition of rapamycin alone; cytotoxicity in a cell viability assay ([7]; concentrations up to ten micromolar): non-cytotoxic

**Q.** For COc1c(C)c2c(c(O)c1C/C=C(\C)CCC(=O)O)C(=O)OC2 [mycophenolic acid], which “in vivo release from coating compared with rapamycin” value ([4]; EVA/BMA basecoat with 180 μg rapamycin and 180 μg mycophenolic acid, no, 100 or 200 μg BMA topcoat, porcine) is on record?
**A.** Its value is “elutes more completely over a shorter duration than the rapamycin”.

**Q.** What about the “effect on the anti-proliferative rapamycin dose response curve” value ([5]; mycophenolic acid zero to one thousand nanomolar added to cells treated with rapamycin) of the same molecule?
**A.** Its value is “potentiates the anti-proliferative activity of rapamycin”.

**Q.** Which “in vivo release rate compared with mycophenolic acid” value ([4]; PVDF basecoat six hundred micrograms, PVDF topcoat two hundred micrograms, porcine) does the source give for CO[C@H]1C[C@@H]2CC[C@@H](C)[C@@](O)(O2)C(=O)C(=O)N2CCCC[C@H]2C(=O)O[C@H]([C@H](C)C[C@@H]2CC[C@@H](O)[C@H](OC)C2)CC(=O)[C@H](C)/C=C(\C)[C@@H](O)[C@@H](OC)C(=O)[C@H](C)C[C@H](C)/C=C/C=C/C=C/1C [rapamycin] here?
**A.** Its value is “slower release rate than that of mycophenolic acid”.

**Q.** Which results are given for CC[C@@]1(O)C(=O)OCc2c1cc1n(c2=O)Cc2cc3c(CN(C)C)c(O)ccc3nc2-1 [topotecan]?
**A.** effect of addition to cells treated with rapamycin on percent inhibition ([2]; topotecan 18.8 to 300 nanomolar): increases the percent inhibition of rapamycin alone; cytotoxicity in a separate cell viability assay ([7]; concentrations up to one micromolar): non-cytotoxic

**Q.** For CC(/C=C/C(=O)NO)=C\[C@@H](C)C(=O)c1ccc(N(C)C)cc1 [trichostatin A], which IC50 ([8]; human coronary artery smooth muscle cells, read-out: anti-proliferative IC50) is on record?
**A.** The IC50 was ~6 nM.

**Q.** And the “inhibition of human coronary artery smooth muscle cell proliferation” value ([8]; in vitro cell culture)?
**A.** The value was “completely inhibit”.

**Q.** And the “anti-proliferative IC50” value [9]?
**A.** The value was “low nM range”.
